Measurements from patent publication US9149038B2, “4-amino-6-(heterocyclic)picolinates and 6-amino-2-(heterocyclic)pyrimidine-4-carboxylates and their use as herbicides” (Dow AgroSciences LLC, priority 2013, dated 2015).
Where two headings read alike, the source gives them in different places.

Legend:
[1] = test system: Key Grass and Sedge Weeds as well as Grass Crops; assay: Post-Emergent Test II: postemergent herbicidal activity, visual rating after 14 d (Table 8); assay type: in vivo; details: post-emergence, 336 h; for pest or weed control at 35 g/ha: 35 g ai/ha; for pest or weed control at 70 g/ha: 70 g ai/ha; for pest or weed control at 140 g/ha: 140 g ai/ha; for pest or weed control at 280 g/ha: 280 g ai/ha
In short: (§1)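 Visual scoring at 14 d, 0 (no injury) to 100 (complete kill), relative to untreated plants. Postemergent overhead track-sprayer application, 187 L/ha, at a top rate plus serial ½×–1/16× rates, to plants grown 7–21 d at about 23–29° C day under a 15 h photoperiod, then subirrigated.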

[2] = test system: Key Broadleaf Weed and Crop Species; assay: Post-Emergent Test II: postemergent herbicidal activity, visual rating after 14 d (Table 7); assay type: in vivo; details: post-emergence, 336 h; for pest or weed control at 35 g/ha: 35 g ai/ha; for pest or weed control at 70 g/ha: 70 g ai/ha; for pest or weed control at 140 g/ha: 140 g ai/ha; for pest or weed control at 280 g/ha: 280 g ai/ha
In short: as §1

[3] = barnyardgrass (Echinochloa crus-galli), read-out: Visual Growth Reduction (%) 14 Days After Application ECHCG
[4] = giant foxtail (Setaria faberi), read-out: Visual Growth Reduction (%) 14 Days After Application SETFA
[5] = maize, corn (Zea mays), read-out: Visual Growth Reduction (%) 14 Days After Application ZEAMX
[6] = rice (Oryza sativa), read-out: Visual Growth Reduction (%) 14 Days After Application ORYSA
[7] = wheat, spring (Triticum aestivum), read-out: Visual Growth Reduction (%) 14 Days After Application TRZAS
[8] = yellow nutsedge (Cyperus esculentus), read-out: Visual Growth Reduction (%) 14 Days After Application CYPES
[9] = lambsquarters (Chenopodium album), read-out: Visual Growth Reduction (%) 14 Days After Application CHEAL
[10] = oilseed rape, canola (Brassica napus), read-out: Visual Growth Reduction (%) 14 Days After Application BRSNN
[11] = redroot pigweed (Amaranthus retroflexus), read-out: Visual Growth Reduction (%) 14 Days After Application AMARE
[12] = sunflower (Helianthus annuus), read-out: Visual Growth Reduction (%) 14 Days After Application HELAN
[13] = velvetleaf (Abutilon theophrasti), read-out: Visual Growth Reduction (%) 14 Days After Application ABUTH
[14] = wild poinsettia (Euphorbia heterophylla), read-out: Visual Growth Reduction (%) 14 Days After Application EPHHL

COC(=O)c1nc(-c2cccc3c2OCO3)c(F)c(N)c1Cl [Compound 71, Methyl 4-amino-6-(benzo[d][1,3]dioxol-4-yl)-3-chloro-5-fluoropicolinate]
95 to 100%: pest or weed control at 35 g/ha [2, 9] | pest or weed control at 70 g/ha [2, 9] | pest or weed control at 140 g/ha [2, 9] | pest or weed control at 280 g/ha [2, 9] | pest or weed control at 280 g/ha [2, 10] | pest or weed control at 70 g/ha [2, 11] | pest or weed control at 140 g/ha [2, 11] | pest or weed control at 280 g/ha [2, 11] | pest or weed control at 70 g/ha [2, 12] | pest or weed control at 140 g/ha [2, 12] | pest or weed control at 280 g/ha [2, 12] | pest or weed control at 140 g/ha [2, 13] | pest or weed control at 280 g/ha [2, 13]
75 to 84%: pest or weed control at 70 g/ha [2, 13]
0 to 29%: pest or weed control at 35 g/ha [1, 3] | pest or weed control at 70 g/ha [1, 3] | pest or weed control at 140 g/ha [1, 3] | pest or weed control at 280 g/ha [1, 3] | pest or weed control at 35 g/ha [1, 4] | pest or weed control at 70 g/ha [1, 4] | pest or weed control at 140 g/ha [1, 4] | pest or weed control at 280 g/ha [1, 4] | pest or weed control at 35 g/ha [1, 5] | pest or weed control at 70 g/ha [1, 5] | pest or weed control at 140 g/ha [1, 5] | pest or weed control at 280 g/ha [1, 5] | pest or weed control at 35 g/ha [1, 6] | pest or weed control at 70 g/ha [1, 6] | pest or weed control at 140 g/ha [1, 6] | pest or weed control at 280 g/ha [1, 6] | pest or weed control at 35 g/ha [1, 7] | pest or weed control at 70 g/ha [1, 7] | pest or weed control at 140 g/ha [1, 7] | pest or weed control at 280 g/ha [1, 7] | pest or weed control at 35 g/ha [1, 8] | pest or weed control at 70 g/ha [1, 8] | pest or weed control at 35 g/ha [2, 14] | pest or weed control at 70 g/ha [2, 14] | pest or weed control at 140 g/ha [2, 14] | pest or weed control at 280 g/ha [2, 14]
30 to 44%: pest or weed control at 140 g/ha [1, 8] | pest or weed control at 35 g/ha [2, 10]
60 to 74%: pest or weed control at 35 g/ha [2, 11] | pest or weed control at 35 g/ha [2, 13]
45 to 59%: pest or weed control at 280 g/ha [1, 8]
85 to 94%: pest or weed control at 70 g/ha [2, 10] | pest or weed control at 140 g/ha [2, 10] | pest or weed control at 35 g/ha [2, 12]

COC(=O)c1nc(-c2ccc3c(c2)OC(C)(C)O3)nc(N)c1Cl [Compound 55]
85 to 94%: pest or weed control at 70 g/ha [1, 4] | pest or weed control at 140 g/ha [1, 4] | pest or weed control at 70 g/ha [2, 11]
0 to 29%: pest or weed control at 35 g/ha [1, 6] | pest or weed control at 70 g/ha [1, 6] | pest or weed control at 140 g/ha [1, 6] | pest or weed control at 35 g/ha [1, 7] | pest or weed control at 70 g/ha [1, 7] | pest or weed control at 140 g/ha [1, 7] | pest or weed control at 35 g/ha [1, 8] | pest or weed control at 70 g/ha [1, 8] | pest or weed control at 140 g/ha [1, 8] | pest or weed control at 35 g/ha [2, 10] | pest or weed control at 70 g/ha [2, 10] | pest or weed control at 140 g/ha [2, 10]
45 to 59%: pest or weed control at 35 g/ha [2, 9] | pest or weed control at 35 g/ha [2, 11] | pest or weed control at 35 g/ha [2, 12]
60 to 74%: pest or weed control at 35 g/ha [1, 5] | pest or weed control at 70 g/ha [1, 5] | pest or weed control at 140 g/ha [1, 5] | pest or weed control at 70 g/ha [2, 9] | pest or weed control at 70 g/ha [2, 12]
95 to 100%: pest or weed control at 140 g/ha [2, 11] | pest or weed control at 35 g/ha [2, 14] | pest or weed control at 70 g/ha [2, 14] | pest or weed control at 140 g/ha [2, 14]
75 to 84%: pest or weed control at 35 g/ha [1, 3] | pest or weed control at 70 g/ha [1, 3] | pest or weed control at 140 g/ha [1, 3] | pest or weed control at 35 g/ha [1, 4] | pest or weed control at 140 g/ha [2, 9] | pest or weed control at 140 g/ha [2, 12] | pest or weed control at 35 g/ha [2, 13] | pest or weed control at 70 g/ha [2, 13] | pest or weed control at 140 g/ha [2, 13]

COc1c(C(=O)O)nc(-c2ccc3c(c2)OC(F)(F)O3)c(F)c1N [Compound 25]
95 to 100%: pest or weed control at 140 g/ha [1, 3] | pest or weed control at 35 g/ha [1, 8] | pest or weed control at 70 g/ha [1, 8] | pest or weed control at 140 g/ha [1, 8] | pest or weed control at 70 g/ha [2, 10] | pest or weed control at 140 g/ha [2, 10] | pest or weed control at 35 g/ha [2, 14] | pest or weed control at 70 g/ha [2, 14] | pest or weed control at 140 g/ha [2, 14]
30 to 44%: pest or weed control at 70 g/ha [1, 6]
45 to 59%: pest or weed control at 35 g/ha [1, 4] | pest or weed control at 35 g/ha [1, 7] | pest or weed control at 70 g/ha [1, 7] | pest or weed control at 140 g/ha [2, 9] | pest or weed control at 35 g/ha [2, 13]
75 to 84%: pest or weed control at 70 g/ha [1, 5] | pest or weed control at 140 g/ha [1, 5] | pest or weed control at 35 g/ha [2, 10] | pest or weed control at 140 g/ha [2, 13]
0 to 29%: pest or weed control at 35 g/ha [1, 6] | pest or weed control at 35 g/ha [2, 9] | pest or weed control at 70 g/ha [2, 9] | pest or weed control at 35 g/ha [2, 11] | pest or weed control at 70 g/ha [2, 11] | pest or weed control at 140 g/ha [2, 11] | pest or weed control at 35 g/ha [2, 12] | pest or weed control at 70 g/ha [2, 12] | pest or weed control at 140 g/ha [2, 12]
60 to 74%: pest or weed control at 70 g/ha [1, 4] | pest or weed control at 140 g/ha [1, 4] | pest or weed control at 35 g/ha [1, 5] | pest or weed control at 140 g/ha [1, 6] | pest or weed control at 140 g/ha [1, 7] | pest or weed control at 70 g/ha [2, 13]
85 to 94%: pest or weed control at 35 g/ha [1, 3] | pest or weed control at 70 g/ha [1, 3]
